Source: PubChem BioAssay AID248 (DTP/NCI, 2004)
Values joined by “and” are separate entries in the source; they are usually repeats but may differ in a detail not shown here. Equal entries are not always repeated. Inconclusive results and toxic doses are left out. Cut-off read from the data, not from the text of the source: active = T/C of 150% or more; inactive = T/C below 125%.

Test system: L1210 leukemia ip in BDF1 mice, survival T/C
Assay: NCI In Vivo Anticancer Drug Screen. Data for tumor model L1210 Leukemia (intraperitoneal) in B6D2F1 (BDF1) mice
Conditions: endpoint: mean survival time, higher = longer survival
Procedure, shortened: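 Mice bearing the transplanted tumor received compound or vehicle. Survival of the treated group was divided by that of the vehicle-treated control group to give the ratio.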

[1] = dose: 100.0 mg/kg/injection, schedule: Q01DX009 (ip), vehicle: saline
[2] = dose: 100.0 mg/kg/injection, schedule: Q04DX003 (ip), vehicle: saline
[3] = dose: 25.0 mg/kg/injection, schedule: Q04DX003 (ip), vehicle: saline
[4] = dose: 50.0 mg/kg/injection, schedule: Q04DX003 (ip), vehicle: saline
[5] = dose: 100.0 mg/kg/injection, schedule: Q01DX001 (ip), vehicle: saline
[6] = dose: 200.0 mg/kg/injection, schedule: Q01DX001 (ip), vehicle: saline
[7] = dose: 50.0 mg/kg/injection, schedule: Q01DX001 (ip), vehicle: carboxymethylcellulose (CMC)
[8] = dose: 100.0 mg/kg/injection, schedule: Q01DX001 (ip), vehicle: carboxymethylcellulose (CMC)
[9] = dose: 200.0 mg/kg/injection, schedule: Q01DX001 (ip), vehicle: carboxymethylcellulose (CMC)
[10] = dose: 400.0 mg/kg/injection, schedule: Q01DX001 (ip), vehicle: saline
[11] = dose: 100.0 mg/kg/injection, schedule: Q01DX009 (ip), vehicle: Klucel (hydroxypropylcellulose) (HPC)
[12] = dose: 200.0 mg/kg/injection, schedule: Q01DX009 (ip), vehicle: Klucel (hydroxypropylcellulose) (HPC)

Measured: T/C

Cc1c2ccncc2c(C)c2c1[nH]c1ccc(Cl)cc12
inactive: dose: 37.5 mg/kg/injection, schedule: Q01DX001 (oral), vehicle: saline with Tween-80 102 % of control | dose: 50.0 mg/kg/injection, schedule: Q01DX009 (ip), vehicle: saline with Tween-80 96 % of control | dose: 50.0 mg/kg/injection, schedule: Q04DX003 (ip), vehicle: saline with Tween-80 104 % of control | dose: 75.0 mg/kg/injection, schedule: Q01DX001 (oral), vehicle: saline with Tween-80 103 % of control | dose: 100.0 mg/kg/injection, schedule: Q01DX009 (ip), vehicle: saline with Tween-80 94 % of control | dose: 100.0 mg/kg/injection, schedule: Q04DX003 (ip), vehicle: saline with Tween-80 98 % of control | dose: 150.0 mg/kg/injection, schedule: Q01DX001 (oral), vehicle: saline with Tween-80 97 % of control | dose: 200.0 mg/kg/injection, schedule: Q01DX001 (oral), vehicle: saline with Tween-80 108 % of control | dose: 200.0 mg/kg/injection, schedule: Q01DX009 (ip), vehicle: saline with Tween-80 92 % of control | dose: 200.0 mg/kg/injection, schedule: Q04DX003 (ip), vehicle: saline with Tween-80 90 % of control | dose: 400.0 mg/kg/injection, schedule: Q01DX001 (oral), vehicle: saline with Tween-80 107 % of control | dose: 800.0 mg/kg/injection, schedule: Q01DX001 (oral), vehicle: saline with Tween-80 113 % of control

CCCCCSP(=S)(C(C)C)C(C)C
inactive: dose: 100.0 mg/kg/injection, schedule: Q01DX001 (ip), vehicle: saline with Tween-80 95 % of control | dose: 200.0 mg/kg/injection, schedule: Q01DX001 (ip), vehicle: saline with Tween-80 93 % of control | dose: 400.0 mg/kg/injection, schedule: Q01DX001 (ip), vehicle: saline with Tween-80 91 % of control

N=C(N)SCc1c2ccccc2cc2ccccc12
inactive: dose: 88.0 mg/kg/injection, schedule: Q01DX009 (ip), vehicle: saline sonified 102 % of control | [1] 102 % of control | [2] 104 % of control | dose: 132.0 mg/kg/injection, schedule: Q01DX009 (ip), vehicle: saline sonified 105 % of control | dose: 200.0 mg/kg/injection, schedule: Q01DX009 (ip), vehicle: saline sonified 114 % of control | dose: 200.0 mg/kg/injection, schedule: Q04DX003 (ip), vehicle: saline 102 % of control | dose: 400.0 mg/kg/injection, schedule: Q04DX003 (ip), vehicle: saline 112 % of control

CC(=O)/C(C)=C/C(=O)O
inactive: dose: 25.0 mg/kg/injection, schedule: Q01DX009 (ip), vehicle: saline 95 % of control | [3] 97 % of control | dose: 50.0 mg/kg/injection, schedule: Q01DX009 (ip), vehicle: saline 97 % of control | [4] 97 % of control | [1] 105 % of control | [2] 97 % of control and 108 % of control

CC(C)(N)CNCC(C)(C)N
inactive: [5] 97 % of control | [6] 111 % of control

NC(=S)N/N=C/c1ccc(F)cn1
inactive: dose: 1.56 mg/kg/injection, schedule: Q01DX009 (ip), vehicle: saline with Tween-80 99 % of control | dose: 3.13 mg/kg/injection, schedule: Q01DX009 (ip), vehicle: saline with Tween-80 106 % of control and 115 % of control | dose: 5.54 mg/kg/injection, schedule: Q01DX009 (ip), vehicle: saline with Tween-80 108 % of control | dose: 6.25 mg/kg/injection, schedule: Q01DX009 (ip), vehicle: saline with Tween-80 119 % of control | dose: 6.25 mg/kg/injection, schedule: Q04DX002 (ip), vehicle: saline with Tween-80 104 % of control | dose: 8.32 mg/kg/injection, schedule: Q01DX009 (ip), vehicle: saline with Tween-80 114 % of control | dose: 12.5 mg/kg/injection, schedule: Q01DX009 (ip), vehicle: saline with Tween-80 119 % of control and 124 % of control | dose: 12.5 mg/kg/injection, schedule: Q04DX002 (ip), vehicle: saline with Tween-80 112 % of control | dose: 18.8 mg/kg/injection, schedule: Q01DX009 (ip), vehicle: saline with Tween-80 98 % of control | dose: 22.0 mg/kg/injection, schedule: Q01DX001 (ip), vehicle: saline with Tween-80 105 % of control | dose: 25.0 mg/kg/injection, schedule: Q04DX002 (ip), vehicle: saline with Tween-80 97 % of control | dose: 33.0 mg/kg/injection, schedule: Q01DX001 (ip), vehicle: saline with Tween-80 107 % of control

Cc1cccc[n+]1C
inactive: [7] 111 % of control | dose: 100.0 mg/kg/injection, schedule: Q01DX001 (ip), vehicle: Klucel (hydroxypropylcellulose) (HPC) 95 % of control | [8] 92 % of control | dose: 200.0 mg/kg/injection, schedule: Q01DX001 (ip), vehicle: Klucel (hydroxypropylcellulose) (HPC) 104 % of control | [9] 103 % of control

COC(C)(C)C(Br)C(=O)OCC(=O)c1ccc(Br)cc1 (stereo not drawn)
inactive: [7] 104 % of control | [8] 108 % of control | [9] 102 % of control | dose: 400.0 mg/kg/injection, schedule: Q01DX001 (ip), vehicle: carboxymethylcellulose (CMC) 102 % of control

S=c1nc[nH]c2c1ncn2C1OC(COCc2ccccc2)C(OCc2ccccc2)C1OCc1ccccc1 (stereo not drawn)
inactive: dose: 50.0 mg/kg/injection, schedule: Q01DX001 (ip), vehicle: saline 93 % of control | [5] 102 % of control | [6] 93 % of control | [10] 96 % of control

O=NN(CCCl)C(=O)C1CCC(C(=O)N(CCCl)N=O)CC1 (stereo not drawn)
inactive: dose: 0.25 mg/kg/injection, schedule: Q01DX001 (ip), vehicle: carboxymethylcellulose (CMC) 108 % of control | dose: 0.5 mg/kg/injection, schedule: Q01DX001 (ip), vehicle: carboxymethylcellulose (CMC) 117 % of control | dose: 10.0 mg/kg/injection, schedule: Q01DX001 (ip), vehicle: carboxymethylcellulose (CMC) 124 % of control | dose: 15.0 mg/kg/injection, schedule: Q01DX001 (ip), vehicle: carboxymethylcellulose (CMC) 123 % of control | dose: 30.0 mg/kg/injection, schedule: Q01DX001 (ip), vehicle: carboxymethylcellulose (CMC) 118 % of control | dose: 62.0 mg/kg/injection, schedule: Q01DX001 (ip), vehicle: carboxymethylcellulose (CMC) 87 % of control

COc1cc([N+](=O)[O-])ccc1NC(=O)Nc1c(C)n(C)n(-c2ccccc2)c1=O
inactive: [11] 97 % of control | [12] 93 % of control | dose: 400.0 mg/kg/injection, schedule: Q01DX009 (ip), vehicle: Klucel (hydroxypropylcellulose) (HPC) 93 % of control

O=C(Nc1cccnc1)c1ccccc1
inactive: dose: 6.25 mg/kg/injection, schedule: Q04DX003 (ip), vehicle: saline with Tween-80 92 % of control | dose: 12.5 mg/kg/injection, schedule: Q04DX003 (ip), vehicle: saline with Tween-80 97 % of control | dose: 25.0 mg/kg/injection, schedule: Q04DX003 (ip), vehicle: saline with Tween-80 99 % of control

Cc1ncc(C(=O)Nc2ccccc2)[nH]1
inactive: [11] 113 % of control | dose: 100.0 mg/kg/injection, schedule: Q04DX003 (ip), vehicle: Klucel (hydroxypropylcellulose) (HPC) 105 % of control | [12] 106 % of control | dose: 200.0 mg/kg/injection, schedule: Q04DX003 (ip), vehicle: Klucel (hydroxypropylcellulose) (HPC) 122 % of control

CC(=O)NC(Cc1cnc[nH]1)C(=O)O (stereo not drawn)
inactive: [5] 97 % of control | [6] 98 % of control | [10] 97 % of control

CCCCCN1C(=O)NC(=O)C(Cl)C1=O (stereo not drawn)
inactive: [5] 89 % of control

O=C1CC(c2cccc(S(=O)(=O)O)c2)=NN1c1ccc([N+](=O)[O-])cn1
inactive: dose: 12.5 mg/kg/injection, schedule: Q04DX003 (ip), vehicle: saline 95 % of control | [3] 95 % of control | [4] 95 % of control
